Experiments:
Cdk14/CycY = Cdk14/CycY (Homo sapiens (Human), UniProt O94921); assay: Lanthascreen Eu kinase binding assay for Cdk14/CycY with 30 minute pre-incubation; details: 30 minute pre-incubation of kinase with compound; read-out: IC50 CDK14 binding by Lanthascreen
Protocol: Lanthascreen Eu kinase binding assays were conducted for Cdk14/CycY largely as performed in the commercial assay service by Life Technologies, but included a 30 minute pre-incubation step of the kinase with candidate compounds to facilitate covalent bond formation.

CDK2/CycA = CDK2/CycA (Homo sapiens (Human), UniProt P24941); assay: Z'LYTE kinase assay for CDK2/CycA at Km ATP; assay type: biochemical; details: read-out: IC50 CDK2 Z′LYTE kinase assay
CDK16/CycY = CDK16/CycY (Homo sapiens (Human), UniProt Q00536); assay: Lanthascreen Eu kinase binding assay for CDK16/CycY; details: read-out: IC50 CDK16 Lanthascreen binding
Protocol: Lanthascreen Eu kinase binding assays were conducted for CDK16/CycY at Life Technologies.

HCT116 cells = assay: Antiproliferation assay, Cell Titer Glo, 72 hours; assay type: cell-based; details: Homo sapiens, HCT-116, 72 h
Summary of the method: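 Luminescent CellTiter-Glo read-out after 72 h compound exposure (four-fold dilutions, 37 °C, 5% CO2) of HCT116 cells plated at 750 cells/well in McCoy's 5A + 10% FBS. Biological quadruplicates; IC50 from non-linear curve fitting.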

Cdk14 [1] = target: T1, Cdk14 (Homo sapiens (Human), UniProt O94921); assay: Cellular pull down with biotinylated probe, CDK14; assay type: cell-based; details: HEK293 cells overexpressing Cdk14-flag
Protocol: HEK293 cells overexpressing a Cdk14-flag fusion protein were treated with candidate compounds for 4 hours. Cells were washed with PBS, harvested and lysed in Pierce IP buffer with protease and phosphatase inhibitors (Roche). […] To enhance pulldown, lysates were incubated at room temperature for an additional 2 hours. […] Beads were then washed 3 times with Pierce IP buffer, then boiled at 95° C. for 5 minutes in 2× LDS+10% β-mercaptoethanol. Proteins of interest engaged by the biotinylated compound were then assessed using western blotting.
Target sequence in this assay (O94921 whole entry, the tested form may be a part): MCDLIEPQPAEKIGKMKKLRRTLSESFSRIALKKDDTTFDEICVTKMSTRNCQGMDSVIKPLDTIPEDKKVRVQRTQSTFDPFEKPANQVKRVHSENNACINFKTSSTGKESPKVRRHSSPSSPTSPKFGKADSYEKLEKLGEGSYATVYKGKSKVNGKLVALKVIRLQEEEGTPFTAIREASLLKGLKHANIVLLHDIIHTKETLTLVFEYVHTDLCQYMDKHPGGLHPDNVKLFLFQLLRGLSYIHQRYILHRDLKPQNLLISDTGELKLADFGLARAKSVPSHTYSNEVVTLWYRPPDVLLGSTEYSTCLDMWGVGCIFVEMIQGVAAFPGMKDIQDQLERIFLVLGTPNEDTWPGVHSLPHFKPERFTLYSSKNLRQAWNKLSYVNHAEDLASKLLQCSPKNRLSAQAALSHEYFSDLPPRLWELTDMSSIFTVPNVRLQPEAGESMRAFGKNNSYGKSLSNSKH

Cdk14 [2] = target: T1, Cdk14; assay: Cdk14 33P kinase assay (Reaction Biology Corp.); assay type: biochemical
Target sequence in this assay (O94921 whole entry, looked up, the tested form may be a part): as the sequence (O94921 whole entry, the tested form may be a part) above
Target sequence in this assay (Q8ND76 whole entry partner, looked up, the tested form may be a part): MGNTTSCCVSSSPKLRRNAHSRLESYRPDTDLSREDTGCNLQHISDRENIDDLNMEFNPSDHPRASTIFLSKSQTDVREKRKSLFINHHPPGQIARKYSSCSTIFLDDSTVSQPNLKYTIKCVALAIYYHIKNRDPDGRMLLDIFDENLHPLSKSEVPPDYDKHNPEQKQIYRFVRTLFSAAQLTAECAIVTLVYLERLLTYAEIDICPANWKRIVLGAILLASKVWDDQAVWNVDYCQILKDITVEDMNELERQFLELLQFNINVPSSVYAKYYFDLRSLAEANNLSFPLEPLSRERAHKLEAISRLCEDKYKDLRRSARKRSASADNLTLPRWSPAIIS

[3] = 4 hours treatment, some cells print Y or N instead of a concentration

Cdk14/CycY, sequence (O94921 whole entry): as the sequence (O94921 whole entry, the tested form may be a part) above
Cdk14/CycY, sequence (Q8ND76 whole entry partner): as the sequence (Q8ND76 whole entry partner, looked up, the tested form may be a part) above
CDK16/CycY, sequence (Q00536 whole entry): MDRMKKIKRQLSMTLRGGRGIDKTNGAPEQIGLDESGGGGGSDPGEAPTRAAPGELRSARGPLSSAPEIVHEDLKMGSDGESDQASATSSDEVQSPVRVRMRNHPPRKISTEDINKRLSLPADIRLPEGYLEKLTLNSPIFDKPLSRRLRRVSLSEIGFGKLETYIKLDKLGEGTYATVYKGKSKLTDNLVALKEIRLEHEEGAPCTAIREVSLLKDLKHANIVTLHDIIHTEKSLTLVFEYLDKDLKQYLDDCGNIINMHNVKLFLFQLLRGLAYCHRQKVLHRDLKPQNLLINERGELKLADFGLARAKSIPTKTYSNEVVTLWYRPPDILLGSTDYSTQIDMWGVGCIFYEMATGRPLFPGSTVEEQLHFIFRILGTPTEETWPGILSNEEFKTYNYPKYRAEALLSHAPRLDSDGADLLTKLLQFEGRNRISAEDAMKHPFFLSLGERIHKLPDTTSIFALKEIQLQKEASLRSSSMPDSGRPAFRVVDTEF
CDK16/CycY, sequence (Q8ND76 whole entry partner): as the sequence (Q8ND76 whole entry partner, looked up, the tested form may be a part) above

| SMILES | IC50 (Cdk14/CycY) [nM] | IC50 (CDK2/CycA) [nM] | IC50 (CDK16/CycY) [nM] | IC50 (HCT116 cells) [nM] | Cellular Potency by Pulldown (Cdk14 [1]; cell prints LOW (>1 μM)) | Cellular Potency by Pulldown (Cdk14 [1]; [3]) [nM] | Cellular Potency by Pulldown (Cdk14 [1]; cell prints LOW (>1 uM)) | IC50 (Cdk14 [2]) [nM] |
| --- | --- | --- | --- | --- | --- | --- | --- | --- |
| Cc1[nH]nc(C(=O)NC2CCN(S(=O)(=O)c3cccc(NC(=O)/C=C/CN(C)C)c3)CC2)c1NC(=O)c1c(Cl)cccc1Cl [FMF-04-181-2, (E)-4-(2,6-dichlorobenzamido)-N-(1-((3-(4-(dimethylamino)but-2-enamido)phenyl)sulfonyl)piperidin-4-yl)-5-methyl-1H-pyrazole-3-carboxamide] | > 1000 | 125 | 124 | > 10000 |  |  |  |  |
| CN(C)C/C=C/C(=O)Nc1ccc(N2CCC(NC(=O)c3n[nH]cc3NC(=O)c3c(Cl)cccc3Cl)CC2)cc1 [FMF-05-073-2, (E)-4-(2,6-dichlorobenzamido)-N-(1-(4-(4-(dimethylamino)but-2-enamido)phenyl)piperidin-4-yl)-1H-pyrazole-3-carboxamide] | 45 | 17 | 27.7 | 541 |  |  |  |  |
| CN(C)C/C=C/C(=O)Nc1cccc(CN2CCC(NC(=O)c3n[nH]cc3NC(=O)c3c(F)cc(F)cc3F)CC2)c1 [FMF-04-200-2, (E)-N-(1-(3-(4-(dimethylamino)but-2-enamido)benzyl)piperidin-4-yl)-4-(2,4,6-trifluorobenzamido)-1H-pyrazole-3-carboxamide] | 17 | 508 | 110 | 293 |  |  |  |  |
| COc1ccccc1CC(=O)Nc1c[nH]nc1C(=O)NC1CCN(S(=O)(=O)c2cccc(NC(=O)/C=C/CN(C)C)c2)CC1 [FMF-05-117-1, (E)-N-(1-((3-(4-(dimethylamino)but-2-enamido)phenyl)sulfonyl)piperidin-4-yl)-4-(2-(2-methoxyphenyl)acetamido)-1H-pyrazole-3-carboxamide] | 14 | 5.71 | 17 | 395 |  |  |  |  |
| COc1cccc(F)c1C(=O)Nc1c[nH]nc1C(=O)NC1CCN(Cc2cccc(NC(=O)/C=C/CN(C)C)c2)CC1 [IHK-01-013-2, (E)-N-(1-(3-(4-(dimethylamino)but-2-enamido)benzyl)piperidin-4-yl)-4-(2-fluoro-6-methoxybenzamido)-1H-pyrazole-3-carboxamide] | 4.2 | 53 | 7.4 | 77 |  |  |  |  |
| C=CC(=O)Nc1cccc(C(=O)Nc2ccc(NC(=O)c3n[nH]cc3NC(=O)c3c(Cl)cccc3Cl)cc2)c1 [FMF-03-205-1, N-(4-(3-acrylamidobenzamido)phenyl)-4-(2,6-dichlorobenzamido)-1H-pyrazole-3-carboxamide] | 1010 |  |  | 6 |  | 500 |  |  |
| COc1ccc(Cl)c(C(=O)Nc2c[nH]nc2C(=O)NC2CCN(S(=O)(=O)c3cccc(NC(=O)/C=C/CN(C)C)c3)CC2)c1Cl [FMF-04-184-2, (E)-4-(2,6-dichloro-3-methoxybenzamido)-N-(1-((3-(4-(dimethylamino)but-2-enamido)phenyl)sulfonyl)piperidin-4-yl)-1H-pyrazole-3-carboxamide] | 6.4 | 3.5 | 1.8 | 23 |  | 100 |  |  |
| CN(C)C/C=C/C(=O)Nc1cccc(S(=O)(=O)N2CCC(NC(=O)c3n[nH]cc3NC(=O)c3ccccc3)CC2)c1 [FMF-05-027-2, (E)-4-benzamido-N-(1-((3-(4-(dimethylamino)but-2-enamido)phenyl)sulfonyl)piperidin-4-yl)-1H-pyrazole-3-carboxamide] | 3 | 2.8 | 9.8 | 440 |  |  |  |  |
| CN(C)C/C=C/C(=O)Nc1cccc(N2CCC(NC(=O)c3n[nH]cc3NC(=O)c3c(Cl)cccc3Cl)CC2)c1 [FMF-05-085-2, (E)-4-(2,6-dichlorobenzamido)-N-(1-(3-(4-(dimethylamino)but-2-enamido)phenyl)piperidin-4-yl)-1H-pyrazole-3-carboxamide] | 27 | 20 | 74.4 | 427 |  |  |  |  |
| CN(C)C/C=C/C(=O)Nc1cccc(S(=O)(=O)N2CCC(NC(=O)c3c(NC(=O)c4c(Cl)cccc4Cl)cnn3C)CC2)c1 [FMF-04-121-1, (E)-4-(2,6-dichlorobenzamido)-N-(1-((3-(4-(dimethylamino)but-2-enamido)phenyl)sulfonyl)piperidin-4-yl)-1-methyl-1H-pyrazole-5-carboxamide] | 486 | > 10000 | 6700 | 2860 |  |  |  |  |
| C=CC(=O)Nc1cccc(S(=O)(=O)N2CCC(NC(=O)c3n[nH]cc3NC(=O)c3c(OC)cc(OC)cc3OC)CC2)c1 [FMF-05-028-1, N-(1-((3-acrylamidophenyl)sulfonyl)piperidin-4-yl)-4-(2,4,6-trimethoxybenzamido)-1H-pyrazole-3-carboxamide] | 48 |  |  | > 10000 |  |  | LOW (>1 uM) |  |
| CN(C)C/C=C/C(=O)Nc1cccc(S(=O)(=O)N2CCC(NC(=O)c3n[nH]cc3NC(=O)C3CCC(F)(F)CC3)CC2)c1 [FMF-05-116-1, (E)-4-(4,4-difluorocyclohexane-1-carboxamido)-N-(1-((3-(4-(dimethylamino)but-2-enamido)phenyl)sulfonyl)piperidin-4-yl)-1H-pyrazole-3-carboxamide] |  | 51.5 | 140 | 8200 |  |  |  |  |
| C=CC(=O)Nc1cccc(CNC(=O)c2n[nH]cc2NC(=O)c2c(Cl)cccc2Cl)c1 [FMF-05-067-1, N-(3-acrylamidobenzyl)-4-(2,6-dichlorobenzamido)-1H-pyrazole-3-carboxamide] |  |  |  | 8500 |  |  |  | > 1000 |

More lines, now with the values ahead:

| IC50 (Cdk14/CycY) [nM] | IC50 (CDK2/CycA) [nM] | IC50 (CDK16/CycY) [nM] | IC50 (HCT116 cells) [nM] | Cellular Potency by Pulldown (Cdk14 [1]; cell prints LOW (>1 μM)) | Cellular Potency by Pulldown (Cdk14 [1]; [3]) [nM] | Cellular Potency by Pulldown (Cdk14 [1]; cell prints LOW (>1 uM)) | IC50 (Cdk14 [2]) [nM] | SMILES |
| --- | --- | --- | --- | --- | --- | --- | --- | --- |
| 49.5 | 24.6 | 11.3 | 4110 |  |  |  |  | COc1cccc(OC)c1C(=O)Nc1c[nH]nc1C(=O)NC1CCN(S(=O)(=O)c2cccc(NC(=O)/C=C/CN(C)C)c2)CC1 [FMF-05-119-1, (E)-4-(2,6-dimethoxybenzamido)-N-(1-((3-(4-(dimethylamino)but-2-enamido)phenyl)sulfonyl)piperidin-4-yl)-1H-pyrazole-3-carboxamide] |
| 108 |  |  | 4700 | LOW (>1 μM) |  |  |  | CN(C)C/C=C/C(=O)Nc1ccc(CNC(=O)c2n[nH]cc2NC(=O)c2c(Cl)cccc2Cl)cc1 [FMF-05-064-2, (E)-4-(2,6-dichlorobenzamido)-N-(4-(4-(dimethylamino)but-2-enamido)benzyl)-1H-pyrazole-3-carboxamide] |
| 0.4 |  |  | < 1 |  | 100 |  |  | C=CC(=O)Nc1cccc(S(=O)(=O)N2CCC(NC(=O)c3n[nH]cc3NC(=O)c3c(Cl)ccc(OC)c3Cl)CC2)c1 [FMF-04-184-1, N-(1-((3-acrylamidophenyl)sulfonyl)piperidin-4-yl)-4-(2,6-dichloro-3-methoxybenzamido)-1H-pyrazole-3-carboxamide] |
| 1000 | > 10000 | 8900 | > 10000 |  |  |  |  | CC(C)c1[nH]nc(C(=O)NC2CCN(S(=O)(=O)c3cccc(NC(=O)/C=C/CN(C)C)c3)CC2)c1NC(=O)c1c(Cl)cccc1Cl [FMF-04-199-1, (E)-4-(2,6-dichlorobenzamido)-N-(1-((3-(4-(dimethylamino)but-2-enamido)phenyl)sulfonyl)piperidin-4-yl)-5-isopropyl-1H-pyrazole-3-carboxamide] |
| > 1000 | 439 | 404 | 3040 |  |  |  |  | CN(C)C/C=C/C(=O)Nc1cccc(S(=O)(=O)N2CCC(NC(=O)c3nscc3NC(=O)c3c(Cl)cccc3Cl)CC2)c1 [FMF-04-089-2, (E)-4-(2,6-dichlorobenzamido)-N-(1-((3-(4-(dimethylamino)but-2-enamido)phenyl)sulfonyl)piperidin-4-yl)isothiazole-3-carboxamide] |
| 28 | 5900 | 5900 | > 10000 |  |  |  |  | CN(C)C/C=C/C(=O)Nc1cccc(S(=O)(=O)N2CCC(NC(=O)c3n[nH]c(-c4ccccc4)c3NC(=O)c3c(Cl)cccc3Cl)CC2)c1 [FMF-04-197-1, (E)-4-(2,6-dichlorobenzamido)-N-(1-((3-(4-(dimethylamino)but-2-enamido)phenyl)sulfonyl)piperidin-4-yl)-5-phenyl-1H-pyrazole-3-carboxamide] |
| 1700 | 15 | 478 | 117 |  |  |  |  | C=CC(=O)Nc1ccc(CNC(=O)c2n[nH]cc2NC(=O)c2c(Cl)cccc2Cl)cc1 [FMF-05-064-1, N-(4-acrylamidobenzyl)-4-(2,6-dichlorobenzamido)-1H-pyrazole-3-carboxamide] |
| > 1000 | 664 | 894 | > 10000 |  |  |  |  | CN(C)C/C=C/C(=O)Nc1cccc(S(=O)(=O)N2CCC(N(C)C(=O)c3n[nH]cc3NC(=O)c3c(Cl)cccc3Cl)CC2)c1 [FMF-04-086-2, (E)-4-(2,6-dichlorobenzamido)-N-(1-((3-(4-(dimethylamino)but-2-enamido)phenyl)sulfonyl)piperidin-4-yl)-N-methyl-1H-pyrazole-3-carboxamide] |
